Laboratory results taken from patent publication US20200352905A1, “6-(2,4-DICHLOROPHENYL)-5-[4-[(3S)-1-(3-FLUOROPROPYL)PYRROLIDIN-3-YL]OXYPHENYL]-8,9-DIHYDRO-7H-BENZO[7]ANNULENE-2-CARBOXYLIC ACID FOR USE IN METASTATIC OR ADVANCED BREAST CANCER PATIENTS” (SANOFI, priority 2019, published 2020).

What was measured:
[1] = test system: ER-positive and HER2-negative advanced breast cancer; assay: TED14856 pooled population (Part A >=150 mg and Part B): post-hoc efficacy analyses and sub-populations; conditions: for Best Overall Response: Complete Response (CR), number of patients / Best Overall Response: Partial Response (PR), % of patients / Best Overall Response: Partial Response (PR), number of patients / Best Overall Response: Progressive Disease (PD), % of patients / Best Overall Response: Progressive Disease (PD), number of patients / Best Overall Response: Stable Disease (SD), % of patients / Best Overall Response: Stable Disease (SD), number of patients / Clinical Benefit Rate, % of patients / Clinical Benefit Rate, number of patients / Overall Response Rate (confirmed CR and PR), % of patients / Overall Response Rate (confirmed CR and PR), number of patients: no prior mTOR, CDK4/6, fulvestrant; for Clinical Benefit Rate (CBR): pooled population
[2] = test system: ER-positive and HER2-negative advanced breast cancer; assay: TED14856 Part B: antitumor activity per RECIST v1.1 by Independent Central Review
Experimental: ORR: antitumor activity as documented by tumor response (CR or PR) defined by RECIST v1.1 determined by Independent Central Review (ICR).
The signal extinction between baseline and on study treatment ^18FES-PET scans constitute the PD readout of the ER engagement. No ^18FES-PET or FDG PET/CT imaging is performed in Part B.
Patients with an early progression as per RECIST v1.1 or who died from disease progression are evaluable for response.

[3] = TED14856 Part B (dose expansion, 400 mg QD): safety, TEAEs; assay type: in vivo, human; conditions: Part B
Experimental: Part B: Dose expansion study to evaluate the efficacy, safety, PK and PD of compound (1) administered at the RD (from Part A). […] A BID regimen (without omission on Day 2) may also be explored if found to be needed. Safety population includes all patients exposed to at least one dose of the study treatment. Treatment emergent adverse events (TEAEs) are analyzed according to current version of the Medical Dictionary for Regulatory Activities (MedDRA) dictionary. Laboratory abnormalities are analyzed according to the NCI-CTCAE v.4.03. Type, frequency, seriousness, severity and relatedness of study treatment TEAEs is analyzed on the safety population for each dose level. Similar analyses as for the escalation phase shall be performed.

[4] = All, pooled Part A ≥150 mg and Part B 400 mg (N = 14)
[5] = TED14856 2017-2019, pooled population n=59, setting 2-9L, prior CDK4/6, mTOR, fulvestrant allowed
[6] = TED14856 2017-2019, sub-population n=14, setting 2L+, no prior CDK4/6, mTOR, fulvestrant
[7] = TED14856 2017-2019, sub-population n=32, setting 3L, prior CDK4/6 allowed, prior mTOR not allowed, prior fulvestrant allowed
[8] = sub-population of 14 patients with neither prior targeted therapies nor SERD (3/14)

Structure (SMILES): O=C(O)c1ccc2c(c1)CCCC(c1ccc(Cl)cc1Cl)=C2c1ccc(O[C@H]2CCN(CCCF)C2)cc1 [compound (1), 6-(2,4-dichlorophenyl)-5-[4-[(3S)-1-(3-fluoropropyl)pyrrolidin-3-yl]oxyphenyl]-8,9-dihydro-7H-benzo[7]annulene-2-carboxylic acid]
- Best Overall Response: Complete Response (CR), number of patients ([1]; 400 mg PART B (N = 11)): 0 n
- Best Overall Response: Partial Response (PR), % of patients ([1]; 400 mg PART B (N = 11)): (27.3) %
- Best Overall Response: Partial Response (PR), number of patients ([1]; 400 mg PART B (N = 11)): 3 n
- Best Overall Response: Progressive Disease (PD), % of patients ([1]; 400 mg PART B (N = 11)): (18.2) %
- Best Overall Response: Progressive Disease (PD), number of patients ([1]; 400 mg PART B (N = 11)): 2 n
- Best Overall Response: Stable Disease (SD), % of patients ([1]; 400 mg PART B (N = 11)): (54.5) %
- Best Overall Response: Stable Disease (SD), number of patients ([1]; 400 mg PART B (N = 11)): 6 n
- Clinical Benefit Rate, % of patients ([1]; 400 mg PART B (N = 11)): (63.6) %
- Clinical Benefit Rate, number of patients ([1]; 400 mg PART B (N = 11)): 7 n
- Overall Response Rate (confirmed CR and PR), % of patients ([1]; 400 mg PART B (N = 11)): (27.3) %
- Overall Response Rate (confirmed CR and PR), number of patients ([1]; 400 mg PART B (N = 11)): 3 n
- Best Overall Response: Complete Response (CR), number of patients [1, 4]: 0 n
- Best Overall Response: Partial Response (PR), % of patients [1, 4]: (21.4) %
- Best Overall Response: Partial Response (PR), number of patients [1, 4]: 3 n
- Best Overall Response: Progressive Disease (PD), % of patients [1, 4]: (21.4) %
- Best Overall Response: Progressive Disease (PD), number of patients [1, 4]: 3 n
- Best Overall Response: Stable Disease (SD), % of patients [1, 4]: (57.1) %
- Best Overall Response: Stable Disease (SD), number of patients [1, 4]: 8 n
- Clinical Benefit Rate, % of patients [1, 4]: (64.3) %
- Clinical Benefit Rate, number of patients [1, 4]: 9 n
- Overall Response Rate (confirmed CR and PR), % of patients [1, 4]: (21.4) %
- Overall Response Rate (confirmed CR and PR), number of patients [1, 4]: 3 n
- CBR [1, 5]: 35.6%
- ORR [1, 5]: 6.8%
- CBR [1, 6]: 64.3%
- ORR [1, 6]: 21.4%
- CBR [1, 7]: 46.9%
- ORR [1, 7]: 12.5%
- Clinical Benefit Rate (CBR) ([1]; ESR1 mutated patients (9/28)): 32.1%
- Clinical Benefit Rate (CBR) ([1]; patients with wild-type ESR1 (12/30)): 40.0%
- Complete Response (CR) ([1]; pooled: All, N=59, by investigator): 0 n
- Complete Response (CR) ([1]; pooled: Part A >=150 mg, N=13, by investigator): 0 n
- Complete Response (CR) ([1]; pooled: Part B 400 mg, N=46, by investigator): 0 n
- ORR [1, 8]: 21.4%
- PD [1, 8]: 21.4%
- PRs [1, 8]: 21.4%
- CBR ([1]; sub-population of 14 patients with neither prior targeted therapies nor SERD (9/14)): 64.3%
- Complete Response (CR) ([1]; ≤3 prior lines, not both chemotherapy and CDK4/6 inhibitor, no mTOR inhibitor: All, N=32): 0 n
- Complete Response (CR) ([1]; ≤3 prior lines, not both chemotherapy and CDK4/6 inhibitor, no mTOR inhibitor: Part A ≥150 mg, N=6): 0 n
- Complete Response (CR) ([1]; ≤3 prior lines, not both chemotherapy and CDK4/6 inhibitor, no mTOR inhibitor: Part B 400 mg, N=26): 0 n
- Best Overall Response: Complete Response (CR), number of patients ([1]; ≥150 mg PART A (N = 3)): 0 n
- Best Overall Response: Partial Response (PR), number of patients ([1]; ≥150 mg PART A (N = 3)): 0 n
- Best Overall Response: Progressive Disease (PD), % of patients ([1]; ≥150 mg PART A (N = 3)): 33.3%
- Best Overall Response: Progressive Disease (PD), number of patients ([1]; ≥150 mg PART A (N = 3)): 1 n
- Best Overall Response: Stable Disease (SD), % of patients ([1]; ≥150 mg PART A (N = 3)): 66.7%
- Best Overall Response: Stable Disease (SD), number of patients ([1]; ≥150 mg PART A (N = 3)): 2 n
- Clinical Benefit Rate, % of patients ([1]; ≥150 mg PART A (N = 3)): 66.7%
- Clinical Benefit Rate, number of patients ([1]; ≥150 mg PART A (N = 3)): 2 n
- Overall Response Rate (confirmed CR and PR), number of patients ([1]; ≥150 mg PART A (N = 3)): 0 n
- Complete Response (CR) ([2]; 400 mg, N=46, by ICR): 0 n
- Clinical Benefit Rate (CBR) assessed by ICR ([2]; ESR1 mutated patients (3/19)): 15.8%
- Clinical Benefit Rate (CBR) assessed by ICR ([2]; patients with wild-type ESR1 (9/26)): 34.6%
- Grade 3 laboratory abnormality: ALK increase [3]: 2 patients
- Grade 3 laboratory abnormality: ALT increase [3]: 4 patients
- Grade 3 laboratory abnormality: AST increase [3]: 6 patients
- Grade 3 laboratory abnormality: anemia [3]: 1 patients
- Grade 3 laboratory abnormality: bilirubin increase [3]: 3 patients
- Grade 3 laboratory abnormality: hypercalcemia [3]: 1 patients
- Grade 3 laboratory abnormality: hyponatremia [3]: 2 patients
- Grade 3 laboratory abnormality: hypophosphatemia [3]: 2 patients
- Grade 3 laboratory abnormality: lymphopenia [3]: 5 patients
- Grade 3 laboratory abnormality: neutropenia [3]: 1 patients
- Grade 4 laboratory abnormality: hypocalcemia [3]: 1 patients
